{"source": "patent US20250186408A1", "about": "“TREATMENT OF PHARMACORESISTANT EPILEPSY” (Katholieke Universiteit Leuven, priority 2021, published 2025)", "key": {"[1]": {"biological_target": "T1, ROCK1 (Homo sapiens, UniProt Q13464)", "T1 construct": "purchased Eurofins DiscoverX Corporation 87-1003DR; host or cells: E. coli BL21-derived host (T7 phage) or HEK-293", "T1 sequence (Q13464 whole entry)": "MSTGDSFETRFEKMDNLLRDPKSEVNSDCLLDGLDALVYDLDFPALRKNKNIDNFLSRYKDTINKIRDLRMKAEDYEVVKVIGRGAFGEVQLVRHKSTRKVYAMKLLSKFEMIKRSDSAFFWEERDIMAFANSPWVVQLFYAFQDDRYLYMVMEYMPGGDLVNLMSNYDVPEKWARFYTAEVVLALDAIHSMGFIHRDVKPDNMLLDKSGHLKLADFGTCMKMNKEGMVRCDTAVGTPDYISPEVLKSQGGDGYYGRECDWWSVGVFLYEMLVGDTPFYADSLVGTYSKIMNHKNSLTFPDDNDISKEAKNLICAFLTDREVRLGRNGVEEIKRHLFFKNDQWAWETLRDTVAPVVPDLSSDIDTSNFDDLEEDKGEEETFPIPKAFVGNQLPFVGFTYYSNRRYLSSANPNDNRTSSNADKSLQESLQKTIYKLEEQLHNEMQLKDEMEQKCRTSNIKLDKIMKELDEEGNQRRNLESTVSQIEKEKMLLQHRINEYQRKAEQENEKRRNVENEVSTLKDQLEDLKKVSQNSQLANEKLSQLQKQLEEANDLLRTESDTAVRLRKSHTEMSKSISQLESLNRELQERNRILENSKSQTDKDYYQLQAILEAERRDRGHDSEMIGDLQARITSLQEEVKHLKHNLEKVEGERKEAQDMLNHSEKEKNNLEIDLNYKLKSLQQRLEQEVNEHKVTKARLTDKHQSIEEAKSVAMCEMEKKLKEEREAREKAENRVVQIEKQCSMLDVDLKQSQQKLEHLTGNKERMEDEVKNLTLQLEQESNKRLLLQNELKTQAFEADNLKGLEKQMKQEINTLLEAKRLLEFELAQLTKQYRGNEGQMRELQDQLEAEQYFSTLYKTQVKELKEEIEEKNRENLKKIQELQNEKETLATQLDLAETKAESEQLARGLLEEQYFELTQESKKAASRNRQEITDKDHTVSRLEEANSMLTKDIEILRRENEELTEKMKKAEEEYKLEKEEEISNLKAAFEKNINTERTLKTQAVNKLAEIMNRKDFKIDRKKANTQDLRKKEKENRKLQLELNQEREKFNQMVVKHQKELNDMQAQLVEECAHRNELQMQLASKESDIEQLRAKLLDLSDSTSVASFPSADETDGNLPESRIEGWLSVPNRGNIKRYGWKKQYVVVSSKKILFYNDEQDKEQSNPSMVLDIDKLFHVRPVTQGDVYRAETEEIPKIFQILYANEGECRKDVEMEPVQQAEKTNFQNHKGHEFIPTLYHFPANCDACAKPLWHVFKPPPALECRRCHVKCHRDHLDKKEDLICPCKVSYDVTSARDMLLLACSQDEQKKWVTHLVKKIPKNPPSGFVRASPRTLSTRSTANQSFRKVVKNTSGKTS", "experiment": "Binding (KINOMEscan) ROCK1 Inhibitor", "details": "for IC50: read-out: RC50, result type IC50; for Emax: read-out: Max response", "experimental": "(§1) For most assays, kinase-tagged T7 phage strains were grown in parallel in 24-well blocks in an E. coli host derived from the BL21 strain. E. coli were grown to log-phase and infected with T7 phage from a frozen stock (multiplicity of infection=0.4) and incubated with shaking at 32° C. until lysis (90-150 min). The lysates were centrifuged (6,000×g) and filtered (0.2 μm) to remove cell debris. The remaining kinases were produced in HEK-293 cells and subsequently tagged with DNA for qPCR detection. Streptavidin-coated magnetic beads were treated with biotinylated small molecule ligands for 30 min at RT to generate affinity resins for kinase assays. The liganded beads were blocked with excess biotin and washed with blocking buffer (SeaBlock (Pierce), 1% BSA, 0.05% Tween 20, 1 mM DTT) to remove unbound ligand and to reduce non-specific phage binding. […] All reactions were performed in polypropylene 384-well plates in a final volume of 0.02 mL. […] The beads were then re-suspended in elution buffer (1×PBS, 0.05% Tween 20, 0.5 μM non-biotinylated affinity ligand) and incubated at RT with shaking for 30 min. The kinase concentration in the eluates was measured by qPCR.\n(§2) The kinase concentration in the eluates was measured by qPCR. qPCR reactions were assembled by adding 2.5 μL of kinase eluate to 7.5 μL of qPCR master mix containing 0.15 μM amplicon primers and 0.15 μM amplicon probe. The qPCR protocol consisted of a 10 min hot start at 95° C., followed by 35 cycles of 95° C. for 15 sec, 60° C. for 1 min.\n(§3) Binding constants (Kds) were calculated with a standard dose-response curve using the Hill equation: […]"}, "[2]": {"biological_target": "T2, VEGFR2 (Homo sapiens, UniProt P35968)", "T2 construct": "purchased Eurofins DiscoverX Corporation 87-1003DR; host or cells: E. coli BL21-derived host (T7 phage) or HEK-293", "T2 sequence (P35968 20-1356)": "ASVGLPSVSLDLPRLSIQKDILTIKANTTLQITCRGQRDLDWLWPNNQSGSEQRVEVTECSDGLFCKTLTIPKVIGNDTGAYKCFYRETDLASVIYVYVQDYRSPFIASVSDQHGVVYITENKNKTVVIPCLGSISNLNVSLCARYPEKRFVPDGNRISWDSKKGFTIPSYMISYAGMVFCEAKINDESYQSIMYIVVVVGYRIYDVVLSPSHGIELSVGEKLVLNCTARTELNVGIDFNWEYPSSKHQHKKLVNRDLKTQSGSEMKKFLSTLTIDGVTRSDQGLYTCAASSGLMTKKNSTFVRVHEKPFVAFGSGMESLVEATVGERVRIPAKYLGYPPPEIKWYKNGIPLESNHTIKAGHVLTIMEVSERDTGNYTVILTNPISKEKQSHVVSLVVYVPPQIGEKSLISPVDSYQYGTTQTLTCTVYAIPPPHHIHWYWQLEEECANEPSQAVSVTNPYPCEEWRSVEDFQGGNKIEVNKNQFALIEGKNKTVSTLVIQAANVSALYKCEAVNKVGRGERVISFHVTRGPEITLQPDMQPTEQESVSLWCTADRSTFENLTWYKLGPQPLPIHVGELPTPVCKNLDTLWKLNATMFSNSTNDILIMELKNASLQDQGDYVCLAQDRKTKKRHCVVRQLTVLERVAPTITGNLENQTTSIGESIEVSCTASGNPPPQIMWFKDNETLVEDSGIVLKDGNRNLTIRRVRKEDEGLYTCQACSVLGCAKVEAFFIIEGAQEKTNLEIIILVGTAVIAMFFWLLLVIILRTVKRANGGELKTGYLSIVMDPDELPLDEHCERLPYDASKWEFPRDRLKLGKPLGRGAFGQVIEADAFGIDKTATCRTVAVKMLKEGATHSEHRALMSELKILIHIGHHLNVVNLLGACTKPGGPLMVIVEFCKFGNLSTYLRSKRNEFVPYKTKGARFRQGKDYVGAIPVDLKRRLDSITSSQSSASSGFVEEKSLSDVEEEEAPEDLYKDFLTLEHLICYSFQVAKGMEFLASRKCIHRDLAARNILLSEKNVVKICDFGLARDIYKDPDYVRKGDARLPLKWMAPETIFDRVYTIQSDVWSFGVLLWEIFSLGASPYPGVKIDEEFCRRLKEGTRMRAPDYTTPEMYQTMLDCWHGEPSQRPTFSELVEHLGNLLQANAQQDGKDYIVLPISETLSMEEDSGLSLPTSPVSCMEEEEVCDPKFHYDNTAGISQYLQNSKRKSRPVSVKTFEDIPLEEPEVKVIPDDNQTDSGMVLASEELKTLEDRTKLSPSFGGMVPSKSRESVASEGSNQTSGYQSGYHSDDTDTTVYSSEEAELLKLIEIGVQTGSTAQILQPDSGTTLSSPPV", "experiment": "Binding (KINOMEscan) VEGFR2 Inhibitor", "details": "for IC50: read-out: RC50, result type IC50; for Emax: read-out: Max response", "experimental": "as §1, §2, §3"}, "[3]": {"biological_target": "T3, MAOA (Homo sapiens, UniProt P21397)", "T3 construct": "purchased Sigma", "T3 sequence (P21397 1-527)": "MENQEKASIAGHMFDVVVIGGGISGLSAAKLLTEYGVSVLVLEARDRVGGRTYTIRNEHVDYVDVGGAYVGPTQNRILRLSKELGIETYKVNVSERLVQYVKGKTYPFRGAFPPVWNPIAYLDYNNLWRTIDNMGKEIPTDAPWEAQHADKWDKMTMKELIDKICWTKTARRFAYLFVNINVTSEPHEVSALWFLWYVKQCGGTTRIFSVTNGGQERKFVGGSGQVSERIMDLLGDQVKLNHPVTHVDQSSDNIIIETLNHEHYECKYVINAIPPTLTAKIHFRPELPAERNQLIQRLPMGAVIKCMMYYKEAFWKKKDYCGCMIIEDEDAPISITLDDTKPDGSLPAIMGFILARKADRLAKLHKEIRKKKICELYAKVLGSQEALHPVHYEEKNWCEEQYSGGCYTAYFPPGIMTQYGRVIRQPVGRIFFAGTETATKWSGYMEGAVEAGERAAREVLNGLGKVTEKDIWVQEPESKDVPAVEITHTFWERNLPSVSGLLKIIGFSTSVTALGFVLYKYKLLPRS", "experiment": "Enzymatic MAOA Inhibitor", "format": "biochemical", "details": "for Emax: read-out: Max response", "experimental": "Enzyme preparations were sourced from various vendors-AChE (R&D Systems), COX1 and COX2 (BPS Bioscience), MAOA (Sigma), PDE3A and PDE4D2 (Signal Chem). AChE: enzyme and test compound were pre-incubated for 15 min at RT before substrate addition. Acetylthiocholine and DTNB were added and incubated at RT for 30 min. Signal was detected by measuring absorbance at 405 nm. COX1 and COX2: enzyme stocks were diluted in assay buffer (40 mM Tris-HCl, 1×PBS, 0.5 mM Phenol, 0.01% Tween 20 and 10 nM Hematin) and allowed to equilibrate with compounds at RT for 30 min (binding incubation). Arachidonic acid (1.7 μM) and Ampliflu Red (2.5 μM) were prepared and dispended into a reaction plate. Plates were read immediately on a fluorimeter with the emission detection at 590 nm and excitation wavelength 544 nm. MAOA: enzyme and test compound were pre-incubated for 15 min at 37° C. before substrate addition. The reaction was initiated by addition of kynuramine and incubated at 37° C. for 30 min. The reaction was terminated by addition of NaOH. The amount of 4-hydroquinoline formed was determined through spectrofluorometric readout with the emission detection at 380 nm and excitation wavelength 310 nm. PDE3A and PDE4D2: enzyme and test compound were pre-incubated for 15 min at RT before substrate addition. cAMP substrate (at a concentration equal to EC80) was added and incubated at RT for 30 min. Enzyme reaction was terminated by addition of 9 mM IBMX. Signal was detected using the HitHunter® cAMP detection kit. Microplates were transferred to a PerkinElmer Envision™ instrument and read out as described for each assay. […] For enzyme activity assays, percentage inhibition was calculated using the following equation: […]"}, "[4]": {"biological_target": "T4, NET (Homo sapiens, UniProt P23975)", "T4 construct": "Eurofins DiscoverX Corporation 87-1003DR; host or cells: unnamed cell lines", "T4 sequence (P23975 whole entry)": "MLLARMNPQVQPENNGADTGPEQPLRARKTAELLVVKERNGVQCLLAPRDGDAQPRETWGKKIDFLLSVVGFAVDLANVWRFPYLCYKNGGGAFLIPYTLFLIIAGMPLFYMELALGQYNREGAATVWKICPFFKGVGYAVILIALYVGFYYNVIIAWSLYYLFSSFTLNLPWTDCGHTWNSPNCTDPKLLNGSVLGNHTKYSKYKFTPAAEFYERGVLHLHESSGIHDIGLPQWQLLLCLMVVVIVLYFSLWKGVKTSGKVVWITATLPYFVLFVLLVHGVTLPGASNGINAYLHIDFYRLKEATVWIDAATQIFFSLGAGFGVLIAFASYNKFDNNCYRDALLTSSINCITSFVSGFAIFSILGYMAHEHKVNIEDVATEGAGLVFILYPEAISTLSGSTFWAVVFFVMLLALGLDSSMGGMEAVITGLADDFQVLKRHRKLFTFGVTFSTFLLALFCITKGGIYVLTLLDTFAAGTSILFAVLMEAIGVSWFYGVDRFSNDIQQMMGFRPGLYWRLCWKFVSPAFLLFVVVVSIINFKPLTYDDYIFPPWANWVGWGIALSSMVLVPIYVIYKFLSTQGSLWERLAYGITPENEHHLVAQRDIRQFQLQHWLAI", "experiment": "Transporter NET Blocker", "format": "cell-based", "details": "for Emax: Transporter NET Blocker, read-out: Max response", "experimental": "After cell plating and incubation, media was removed an 25 μL of 1× compound in 1×HBSS/0.1% BSA was added. Compounds were incubated with cells for 30 min at 37° C. After compound incubation, 25 μL of 1× dye loading buffer (1× dye, 1×HBSS/20 mM HEPES) was added to the wells. Cells were incubated for 30-60 min at 37° C. After incubation, microplates were transferred to a PerkinElmer Envision™ instrument for fluorescent signal detection. […] For blocker mode assays, percentage of inhibition was calculated using the following formula: […]"}, "[5]": {"biological_target": "CNR2 (Homo sapiens, UniProt P34972)", "sequence (P34972 whole entry)": "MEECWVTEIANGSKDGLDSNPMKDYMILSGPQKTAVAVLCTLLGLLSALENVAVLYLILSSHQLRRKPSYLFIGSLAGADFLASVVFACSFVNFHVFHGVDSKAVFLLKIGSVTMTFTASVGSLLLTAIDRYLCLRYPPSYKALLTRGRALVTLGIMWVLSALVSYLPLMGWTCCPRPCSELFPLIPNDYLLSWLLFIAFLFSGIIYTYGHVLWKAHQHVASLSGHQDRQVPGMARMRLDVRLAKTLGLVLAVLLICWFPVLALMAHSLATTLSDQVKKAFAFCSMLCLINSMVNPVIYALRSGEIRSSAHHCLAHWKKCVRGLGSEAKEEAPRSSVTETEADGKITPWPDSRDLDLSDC", "experiment": "cAMP CNR2 Antagonist", "details": "for Emax: read-out: Max response", "procedure": "(§4) In vitro pharmacological profiling of compounds was done against 78 functional assays for 47 common off-targets (30) by Eurofins DiscoverX Corporation (Fremont, CA, USA) using their SAFETYscan E/IC50 ELECT service (Cat Ref 87-1003DR, Safety47 Panel Dose Response). […] Compounds were tested in a range of 10 concentrations, following a 3-fold serial dilution, starting from 10 μM.\ncAMP Hunter cell lines were expanded from freezer stocks. Prior to testing, cells were seeded in a total volume of 20 μL into white walled 384-well microplates and incubated at 37° C. cAMP modulation was determined using the DiscoverX HitHunter cAMP XS+ assay. For Gs agonist determination, cells were incubated with sample to induce response. For Gi agonist determination, cells were incubated with sample in the presence of EC80 forskolin to induce response. For both conditions, media was aspirated from cells and replaced with 15 μL 2:1 HBSS/10 mM HEPES:cAMP XS+ Ab reagent. Intermediate dilution of sample stocks was performed to generate 4× sample in assay buffer (containing 4×EC80 forskolin in the case of antagonist determination). 5 μL of 4× sample was added to cells and incubated at 37° C. or room temperature (RT) for 30 or 60 min. Final assay vehicle concentration was 1%. For antagonist determination, cells were pre-incubated with sample followed by agonist challenge at the EC80 concentration. Media was aspirated from cells and replaced with 10 μL 1:1 HBSS/HEPES:cAMP XS+ Ab reagent. 5 μL of 4× compound was added to the cells and incubated at 37° C. or RT for 30 min. 5 μL of 4×EC80 agonist was added to the cells and incubated at 37° C. or RT for 30 or 60 min. For Gi coupled GPCRs, EC80 forskolin was included. […] Microplates were read following signal generation with a PerkinElmer Envision™ instrument for chemiluminescent signal detection. Compound activity was analyzed using CBIS data analysis suite (ChemInnovation, CA). For Gs agonist mode assays, percentage activity was calculated using the following equation:"}, "[6]": {"system": "male NMRI mice", "experiment": "Mouse 6-Hz (44 mA) psychomotor seizure model", "format": "in vivo", "details": "30 min before stimulation; for dose-response relationship (in words): i.p.", "procedure": "The antiseizure activity of compounds was investigated in the mouse 6-Hz (44 mA) psychomotor seizure model as described before (27). […] Seizure behaviour was video recorded and seizure durations were determined by blinded video analysis by experienced researchers, familiar with the different seizure characteristics. Data are expressed as mean±SD.\nThe 6-Hz 44 mA model is an acute model of pharmacoresistant focal impaired awareness seizures, previously referred to as complex partial or psychomotor seizures that are induced by a low frequency, long duration corneal electrical stimulation (6 Hz, 0.2 ms rectangular pulse width, 3 s duration, 44 mA). Seizures are typically characterized by a clonic phase and stereotypical automatic behaviours like stun, forelimb clonus, Straub tail and vibrissae twitching."}, "[7]": {"biological_target": "OPRD1 (Homo sapiens, UniProt P41143)", "sequence (P41143 whole entry)": "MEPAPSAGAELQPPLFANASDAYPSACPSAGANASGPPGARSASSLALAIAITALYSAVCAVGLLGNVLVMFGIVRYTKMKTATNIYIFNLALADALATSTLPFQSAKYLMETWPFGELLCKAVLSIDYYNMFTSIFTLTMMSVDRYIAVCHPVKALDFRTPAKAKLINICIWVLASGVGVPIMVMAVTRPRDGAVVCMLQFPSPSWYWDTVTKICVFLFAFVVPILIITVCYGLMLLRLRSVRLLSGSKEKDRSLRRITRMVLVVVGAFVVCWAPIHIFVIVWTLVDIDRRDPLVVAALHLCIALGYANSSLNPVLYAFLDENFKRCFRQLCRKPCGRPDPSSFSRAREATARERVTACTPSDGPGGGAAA", "experiment": "cAMP OPRD1 Agonist", "details": "for Emax: read-out: Max response", "procedure": "as §4\n(§5) cAMP Hunter cell lines were expanded from freezer stocks. Prior to testing, cells were seeded in a total volume of 20 μL into white walled 384-well microplates and incubated at 37° C. cAMP modulation was determined using the DiscoverX HitHunter cAMP XS+ assay. For Gs agonist determination, cells were incubated with sample to induce response. For Gi agonist determination, cells were incubated with sample in the presence of EC80 forskolin to induce response. For both conditions, media was aspirated from cells and replaced with 15 μL 2:1 HBSS/10 mM HEPES:cAMP XS+ Ab reagent. Intermediate dilution of sample stocks was performed to generate 4× sample in assay buffer (containing 4×EC80 forskolin in the case of antagonist determination). 5 μL of 4× sample was added to cells and incubated at 37° C. or room temperature (RT) for 30 or 60 min. Final assay vehicle concentration was 1%. For antagonist determination, cells were pre-incubated with sample followed by agonist challenge at the EC80 concentration. Media was aspirated from cells and replaced with 10 μL 1:1 HBSS/HEPES:cAMP XS+ Ab reagent. 5 μL of 4× compound was added to the cells and incubated at 37° C. or RT for 30 min. 5 μL of 4×EC80 agonist was added to the cells and incubated at 37° C. or RT for 30 or 60 min. For Gi coupled GPCRs, EC80 forskolin was included. […] Microplates were read following signal generation with a PerkinElmer Envision™ instrument for chemiluminescent signal detection. Compound activity was analyzed using CBIS data analysis suite (ChemInnovation, CA)."}, "[8]": {"biological_target": "DRD2S (Homo sapiens, UniProt P14416)", "sequence (P14416 1-414 isoform P14416-2)": "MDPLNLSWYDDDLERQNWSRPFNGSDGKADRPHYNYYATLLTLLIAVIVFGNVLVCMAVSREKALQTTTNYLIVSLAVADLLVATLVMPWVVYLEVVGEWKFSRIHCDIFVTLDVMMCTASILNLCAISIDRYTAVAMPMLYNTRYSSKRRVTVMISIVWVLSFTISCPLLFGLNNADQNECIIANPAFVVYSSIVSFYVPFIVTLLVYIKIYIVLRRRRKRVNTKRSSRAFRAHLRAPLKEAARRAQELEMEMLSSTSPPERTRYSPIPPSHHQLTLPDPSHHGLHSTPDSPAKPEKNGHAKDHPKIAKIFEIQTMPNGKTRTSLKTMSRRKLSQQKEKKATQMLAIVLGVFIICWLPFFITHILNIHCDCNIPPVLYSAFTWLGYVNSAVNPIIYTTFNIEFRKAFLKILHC", "experiment": "cAMP DRD2S Agonist", "details": "for Emax: read-out: Max response", "procedure": "as §4, §5"}}, "note": "Where two headings read alike, the source gives them in different places."}
{"smiles": "CC(C)(C)c1ccc(C#CC(O)c2ccccc2)cc1", "note": "(racemic) [Compound 3.3, rac-3-(4-(tert-butyl)phenyl)-1-phenylprop-2-yn-1-ol]", "values": [{"measurement": "IC50", "setting": "[1]; Binding ROCK1 Inhibitor", "value": "> 10", "unit": "µM"}, {"measurement": "Emax", "setting": "[1]", "value": 0, "unit": "%"}, {"measurement": "IC50", "setting": "[2]; Binding VEGFR2 Inhibitor", "value": "> 10", "unit": "µM"}, {"measurement": "Emax", "setting": "[2]", "value": 0, "unit": "%"}, {"measurement": "IC50", "setting": "[3]", "value": "> 10", "unit": "µM"}, {"measurement": "Emax", "setting": "[3]", "value": 4.4, "unit": "%"}, {"measurement": "IC50", "setting": "[4]", "value": "> 10", "unit": "µM"}, {"measurement": "Emax", "setting": "[4]", "value": 0, "unit": "%"}, {"measurement": "IC50", "setting": "[5]", "value": "> 10", "unit": "µM"}, {"measurement": "Emax", "setting": "[5]", "value": 38.3, "unit": "%"}, {"measurement": "mean seizure duration", "setting": "[6]; 30 mg/kg i.p.", "value": 9.5, "unit": "s"}, {"measurement": "mean seizure duration", "setting": "[6]; 100 mg/kg i.p.", "value": 7.7, "unit": "s"}, {"measurement": "mean seizure duration", "setting": "[6]; 200 mg/kg i.p.", "value": 1.1, "unit": "s"}, {"measurement": "mean seizure duration", "setting": "[6]; 300 mg/kg i.p.", "value": 0, "unit": "s"}, {"measurement": "mean seizure duration", "setting": "[6]; 600 mg/kg i.p.", "value": 1.00, "unit": "s"}, {"measurement": "dose-response relationship (in words)", "setting": "[6]", "value": "displayed a dose-response relationship"}, {"measurement": "EC50", "setting": "[7]", "value": "> 10", "unit": "µM"}, {"measurement": "Emax", "setting": "[7]", "value": 3.6, "unit": "%"}, {"measurement": "EC50", "setting": "[8]", "value": "> 10", "unit": "µM"}, {"measurement": "Emax", "setting": "[8]", "value": 0, "unit": "%"}]}
{"smiles": "Clc1cccc(C#Cc2n[nH]c3ncccc23)c1", "note": "[Compound 10.1, 3-((3-chlorophenyl)ethynyl)-1H-pyrazolo[3,4-b]pyridine]", "values": [{"measurement": "Emax", "setting": "[1]; Binding ROCK1 Inhibitor", "value": 4.2, "unit": "%"}, {"measurement": "IC50", "setting": "[1]; Binding ROCK1 Inhibitor", "value": "> 10", "unit": "µM"}, {"measurement": "Emax", "setting": "[2]; Binding VEGFR2 Inhibitor", "value": 5.4, "unit": "%"}, {"measurement": "IC50", "setting": "[2]; Binding VEGFR2 Inhibitor", "value": "> 10", "unit": "µM"}, {"measurement": "Emax", "setting": "[3]; Enzymatic MAOA Inhibitor", "value": 12.4, "unit": "%"}, {"measurement": "IC50", "setting": "[3]; Enzymatic MAOA Inhibitor, read-out: RC50, result type IC50", "value": "> 10", "unit": "µM"}, {"measurement": "IC50", "setting": "[4]", "value": "> 10", "unit": "µM"}, {"measurement": "Emax", "setting": "[4]", "value": 13.6, "unit": "%"}, {"measurement": "IC50", "setting": "[5]", "value": "> 10", "unit": "µM"}, {"measurement": "Emax", "setting": "[5]", "value": 0, "unit": "%"}, {"measurement": "mean seizure duration", "setting": "[6]; 10 mg/kg i.p.", "value": 6.2, "unit": "s"}, {"measurement": "mean seizure duration", "setting": "[6]; 30 mg/kg i.p.", "value": 5.5, "unit": "s"}, {"measurement": "mean seizure duration", "setting": "[6]; 100 mg/kg i.p.", "value": 6.0, "unit": "s"}, {"measurement": "mean seizure duration", "setting": "[6]; 200 mg/kg i.p.", "value": 8.5, "unit": "s"}, {"measurement": "mean seizure duration", "setting": "[6]; 300 mg/kg i.p.", "value": 3.0, "unit": "s"}, {"measurement": "mean seizure duration", "setting": "[6]; 400 mg/kg i.p.", "value": 1.2, "unit": "s"}, {"measurement": "mean seizure duration", "setting": "[6]; 600 mg/kg i.p.", "value": 0.8, "unit": "s"}, {"measurement": "dose-response relationship (in words)", "setting": "[6]", "value": "displayed a dose-response relationship"}, {"measurement": "EC50", "setting": "[7]", "value": "> 10", "unit": "µM"}, {"measurement": "Emax", "setting": "[7]", "value": 12.1, "unit": "%"}, {"measurement": "EC50", "setting": "[8]", "value": "> 10", "unit": "µM"}, {"measurement": "Emax", "setting": "[8]", "value": 15, "unit": "%"}]}
